Data published in paper PMC10578927, “An unconventional gatekeeper mutation sensitizes inositol hexakisphosphate kinases to an allosteric inhibitor” (eLife, 2023).
Values belong to the compound of their own block, whether it stands above or below them.

Columns and labels:
IP6K1^L210V [1] = molecular target: T1, IP6K1^L210V (Homo sapiens, UniProt Q92551, L210V); test: NMR activity assay, [13C6]-InsP6 to 5PP-InsP5, with ATP-regenerating system; assay type: biochemical; details: for inhibition of IP6K1^L210V: 10 µM concentration
T1 construct: made in house; host or cells: E. coli Arctic Express
T1 sequence (Q92551 whole entry L210V): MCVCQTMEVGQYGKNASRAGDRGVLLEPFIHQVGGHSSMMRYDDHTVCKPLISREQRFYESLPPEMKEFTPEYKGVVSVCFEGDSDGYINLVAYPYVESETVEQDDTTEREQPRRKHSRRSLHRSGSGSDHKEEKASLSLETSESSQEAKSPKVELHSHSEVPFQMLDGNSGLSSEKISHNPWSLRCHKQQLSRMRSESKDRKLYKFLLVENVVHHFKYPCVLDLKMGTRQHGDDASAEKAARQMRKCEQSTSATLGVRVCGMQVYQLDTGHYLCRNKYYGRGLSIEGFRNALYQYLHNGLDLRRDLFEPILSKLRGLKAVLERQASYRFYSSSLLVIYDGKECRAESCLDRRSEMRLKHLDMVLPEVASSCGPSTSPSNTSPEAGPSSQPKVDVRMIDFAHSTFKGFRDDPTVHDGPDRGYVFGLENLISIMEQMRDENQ
Text: (§1) The gatekeeper mutants L210G and L210A of IP6K1 were generated by site-directed mutagenesis and the enzymes were recombinantly expressed, analogous to the WT kinase, as MBP-fusion proteins. To assess their catalytic activity, we used an NMR assay that harnesses fully ^13C-labeled InsP6 as a substrate and enables direct product readout of 5PP-InsP5 (Figure 2b and Figure 2—figure supplement 1; [Puschmann et al., 2019]; [Harmel et al., 2019]). […] Likewise, IP6K2 suffered a drastic decline in substrate turnover upon gatekeeper mutation to glycine (Figure 2—figure supplement 2).
(§2) The NMR assay for IP6K activity was performed similarly as described before ([Harmel et al., 2019]) with slight alterations. Enzyme assays were performed in D2O in a total volume of 150 µl containing 20 mM 4-(2-hydroxyethyl)-1-piperazineethanesulfonic acid (HEPES) pH* 6.8, 50 mM NaCl, 6 mM MgCl2, 1 mM ATP, 0.2 mg/ml BSA, 1 mM DTT, 5 mM creatine phosphate and 1 U/ml creatine kinase (ATP-regenerating system) and 50 nM kinase if not otherwise stated. HEPES, NaCl, and BSA were prepared as buffer A and DTT and creatine phosphate as buffer B in D2O and were adjusted to pH* 6.8, respectively. If applicable, inhibitor was added as a DMSO-d6 stock in a twofold dilution series at a final DMSO concentration of 1% if not otherwise mentioned. Otherwise, DMSO-d6 was added to the same percentage. The samples were equilibrated at 37°C for 3 min and the reaction initiated by adding 100 µM [^13C6]-InsP6.

IP6K1^wt [2] = molecular target: T2, IP6K1^wt (Homo sapiens, UniProt Q92551); test: Michaelis–Menten and Lineweaver–Burk kinetics (NMR); assay type: biochemical
T2 construct: made in house; host or cells: E. coli Arctic Express
T2 sequence (Q92551 whole entry): as the sequence (Q92551 whole entry L210V) above, with V210L counted along it
Description: (§3) Kinetic assays were performed in D2O in a total volume of 500 µl containing the same buffer components for IP6K and IP6KA constructs as stated for the NMR activity assays above. […] If applicable, inhibitor was added as a DMSO-d6 stock at a final DMSO concentration of 1%. Otherwise, DMSO-d6 was added to the same percentage. The samples were equilibrated at 37°C for 5 min and the reaction initiated by adding 100 µM [^13C6]-InsP6. The reaction time was adjusted so that conversion would not exceed 20% to remain in the linear range for initial velocity measurements. The reaction was quenched with 38 µl 700 mM EDTA pH* 8.0 and transferred into an NMR tube before being measured on a Bruker […] 600 PLUS with an NMR pulse program developed previously ([Harmel et al., 2019]). Initial velocities were calculated by dividing the amount of generated product by the product of reaction time in seconds and mass of the kinase in mg.

IP6K1^L210V [3] = molecular target: T1, IP6K1^L210V; test: as above; assay type: biochemical; details: Michaelis–Menten, read-out: KM for ATP
Description: as §3

IP6K1^wt [4] = molecular target: T2, IP6K1^wt; test: NMR activity assay, [13C6]-InsP6 to 5PP-InsP5, with ATP-regenerating system; assay type: biochemical
Text: as §1, §2

IP6K = details: Figure 1b; ref Padmanabhan et al., 2009 (TNP); Wormald et al., 2019 (Barrow-24); Moritoh et al., 2021; Terao et al., 2018 (SC-919); cited from earlier work
IP6K1^wt [5] = molecular target: T2, IP6K1^wt; test: High-throughput screen, reverse kinase reaction (5PP-InsP5 + ADP), Kinase-Glo luminescence; assay type: biochemical; details: dose-dependent reconfirmation
IP6K1^L210V [6] = molecular target: T1, IP6K1^L210V; test: as above; assay type: biochemical
Text: Although the NMR assay described above provides direct product detection and the ability to distinguish the PP-InsP isomers ([Harmel et al., 2019]), it is inherently slow and thus not compatible with a high-throughput screen. The use of luminescence-based readouts of ATP consumption to measure IP6K activity is error-prone due to the kinase’s unusually low affinity for ATP, the sensitivity to the ATP/ADP ratio, and its inherent ATPase activity ([Wundenberg et al., 2014]; [Voglmaier et al., 1996]). Nevertheless, we were able to take advantage of these properties by examining the reverse reaction of IP6K1 with the Kinase-Glo assay, where 5PP-InsP5 and ADP are converted to InsP6 and ATP (Figure 3a).
The following solutions were prepared as 4× stock solutions: kinase buffer (HEPES pH 7.4, NaCl, BSA, MgCl2, Tween-20, DTT, and IP6K1^L210V), DMSO/inhibitor, ADP, and 5PP-InsP5. Final concentrations after optimization were 1 mM ADP, 20 mM HEPES, 50 mM NaCl, 0.2 mg/ml BSA, 2 mM MgCl2, 0.05% Tween-20, 1 mM DTT, 250 nM IP6K1^L210V, and 50 μM 5PP-InsP5. The reactions were carried out in 384-well plates following this procedure. 5 µl 4× kinase buffer (buffer only for no kinase controls), 5 µl 4× DMSO or inhibitor and 5 µl 4× ADP solution were subsequently added to all wells. After 10 min equilibration, 5 μl 4× 5PP-InsP5 were added to start the reaction (milli-Q water for negative controls). After 3 hr at room temperature, 20 µl of Promega Kinase-Glo Plus reagent were added and the luminescence read out with a Tecan Infinite M Plex reader using 100-ms exposure time after 10 min of equilibration.
ADP was prepared in a 2× stock solution in milli-Q water and the pH adjusted to 7.0. The following solutions were prepared as 4× stock solutions: kinase buffer (HEPES pH 7.4, NaCl, BSA, MgCl2, Tween-20, DTT, and IP6K1^L210V) and 5PP-InsP5. Final concentrations were 1 mM ADP, 20 mM HEPES, 50 mM NaCl, 0.2 mg/ml BSA, 2 mM MgCl2, 0.05% Tween-20, 1 mM DTT, 250 nM IP6K1^L210V, and 50 µM 5PP-InsP5. The reactions were carried out in 384-well plates following this procedure. 10 µl 2× ADP solution were added to all wells, then 0.2 µl DMSO or compound (1 mM in DMSO) were added followed by the addition of 5 µl 4× kinase buffer. For dose–response curves, compounds were added in serial dilution (twofold serial dilutions in DMSO across multiple plates prior to compound transfer to assay plates, 9 concentrations in total). After 10 min equilibration, 5 µl 4× 5PP-InsP5 were added to start the reaction (milli-Q water for negative controls). After 3 hr at room temperature, 20 µl of Promega Kinase-Glo Plus reagent were added and the luminescence read out with a Tecan Infinite M Plex or Perkin Elmer EnVision reader using 100ms exposure time after 10 min of equilibration. In the counter screen, dose–response curves were measured in the absence of kinase and presence of 50 µM ATP.

HepG2 = test: Cytotoxicity, cell survival after 72 hr incubation; assay type: cell-based; details: HepG2, 10 µM, 72 hr incubation
Description: (§4) Supplementary file elife-88982-supp2.xlsx: Supplementary file 2. Cytotoxicity of selected hits indicated by cell survival after 72 hr incubation at 10 µM concentration. All compounds were measured in independent triplicates and errors represent standard deviation. Redox activity of selected compounds measured via a photometric surrogate assay. Reactions contained 50 mM HEPES pH 7.5, 50 mM NaCl, 200 mM DTT, and 20 µM resazurin, and were incubated for 1 hr at 37°C.

HEK293 = test: Cytotoxicity, cell survival after 72 hr incubation; assay type: cell-based; details: HEK293, 10 µM, 72 hr incubation
Description: as §4

inhibition of IP6K1^L210V (IP6K1^L210V [1]; NMR assay): completely inactive
Structure (SMILES): O=C1c2ccccc2C(=O)N1c1ccc(-c2nc3ccc(N4C(=O)c5ccccc5C4=O)cc3[nH]2)cc1 [A1]

Km (IP6K1^wt [2]; Michaelis–Menten, read-out: KM for ATP): 186 ± 23 µM
Km (IP6K1^L210V [3]): 412 ± 81 µM
Structure (SMILES): Nc1ncnc2c1ncn2[C@@H]1O[C@H](COP(=O)(O)OP(=O)(O)OP(=O)(O)O)[C@@H](O)[C@H]1O [ATP]

Structure (SMILES): O=C(O)c1ccc2c(c1)C(=O)N(c1ccc(-c3nc4ccccc4[nH]3)cc1)C2=O [A2]
inhibition of IP6K1^L210V (IP6K1^L210V [1]; NMR assay): inhibited IP6K1^L210V, albeit with severely reduced potency

Structure (SMILES): Cn1c(=O)n(-c2ccc(C(C)(C)C#N)cc2)c2c3cc(-c4cnc5ccccc5c4)ccc3ncc21 [BEZ235, reference compound]
inhibitory activity against IP6K1^wt (IP6K1^wt [4]; 10 µM concentration): none of these compounds exhibited any inhibitory activity
inhibition of IP6K1^L210V (IP6K1^L210V [1]; NMR assay): inhibition of IP6K1^L210V was not observed either

Structure (SMILES): O=[N+]([O-])c1ccc(CNc2nc(NCc3cccc(C(F)(F)F)c3)nc3[nH]cnc23)cc1 [TNP, N2-(m-trifluorobenzyl)-N6-(p-nitrobenzyl)purine, reference compound]
mechanism of inhibition (Lineweaver–Burk) (IP6K1^wt [2]; versus ATP): competitive mechanism of action
IC50 (IP6K): 470 nM
IC50 (IP6K1^wt [4]; Figure 4—figure supplement 2b): 2150 nM
difference in potency against IP6K1^wt and IP6K1^L210V (IP6K1^L210V [1]; NMR IC50 curves): no significant difference in potency
IC50 (IP6K1^L210V [1]; NMR assay, Figure 4—figure supplement 2b): 1410 nM

Structure (SMILES): O=c1c(O)c(-c2ccc(O)c(O)c2)oc2cc(O)cc(O)c12 [compound 405356, quercetin, reference compound]
IC50 (IP6K1^wt [5]): 12100 nM
IC50 (IP6K1^L210V [6]; Kinase-Glo, reverse reaction, dose-dependent reconfirmation): 2860 nM
Z-score (IP6K1^L210V [6]; primary screen, IP6K1^L210V): -14.6
%Activity (IP6K1^L210V [6]; primary screen, residual activity of IP6K1^L210V): 7.8%
Cell number (%) (HepG2): 65.9 ± 16.9%
Cell number (%) (HEK293): 104.0 ± 1.4%
